Results as given in US9273038B2, “Solid forms of an ion channel modulator” (Gilead Sciences, Inc., priority 2014, dated 2016).
Read-outs that look alike come from different tables or passages of the source.

What was measured:
Assay type in all cases: physicochemical
[1] = Stable form screen of Compound I Form IV (slurry at room temperature); conditions: for solubility at 24 h: slurry of the solid in solvent, thermodynamic from solid, read-out: Solubility after 24 h
Method: Compound I Form IV (about 50 mg) was slurried in 0.5-1 mL of solvent and allowed to stir at room temperature for 2 weeks. […] Similar results were observed after 2 weeks of equilibration (Table 15).

[2] = Thermal stability of Compound I Form IV under vacuum at 45° C. (XRPD, HPLC); conditions: for HPLC (% AN) / XRPD / HPLC (% ES): drying under vacuum at 45° C.
Method: Drying study was also performed of Compound I Form IV under vacuum at 45° C. in an attempt to determine the chemical stability of this material by HPLC as well as form stability by XRPD.

[3] = Dynamic vapor sorption (DVS) analysis
Method: The solids with unique XRPD patterns were characterized by DSC, TGA, ^1H NMR, KF and DVS. All XRPD patterns were obtained in the experimental setting as follows: 45 kV, 40 mA, Kα1=1.5406 Å, scan range 2 to 40°, step size 0.0167°, counting time: 15.24 s. DSC and TGA analyses were performed using 10° C./min heating rate over the 20 to 350° C. temperature range.

[4] = Abbreviated stable form screen of Compound I Form V (slurry at room temperature); conditions: for solubility at 3 days: slurry of the solid in solvent, organic solvent or mixture, thermodynamic from solid, solid converted to Form VI
Method: Abbreviated stable form screen of Compound I Four V was performed by slurrying […] (about 100 mg) in IPA, IPAc and MTBE (1-2 mL) in an attempt to obtain anhydrous form as summarized in Table 16. The first aliquot (about 0.5 mL) was taken for XRPD analysis and solubility assessment after 3 days of equilibration at room temperature. Solids were analyzed before and after overnight drying at 45° C. […] After two weeks equilibration at room temperature no form change was observed. XRPD patterns of all samples were consistent with Compound I Form VI.

[5] = Hydrate screen in ethanol/water and isopropanol/water: solubility and relative form stability; conditions: for Form III Solubility mg/g (1 day): from 50:50 w/w mixture of Form I & III
Method: A hydrate screen starting from Form I was also conducted to evaluate whether hydrates of Compound I exist. The hydrate screen was conducted in ethanol/water (Table 6) and isopropanol/water (Table 7) mixtures, and in both cases, a new polymorph of Compound I was discovered (denoted as Form III).
From the initial hydrate screens presented in Table 6 and Table 7 no apparent trends were observed. In this case, all slurries of Form I in EtOH/water or IPA/water mixtures remained unchanged after 2 weeks (Table 8 and Table 9). Since Form III has been observed previously under the same conditions, it was suspected that the lack of form conversion is mainly due to slow kinetics. […] Attempts to determine the relative stability between Forms I and III at lower water activities were unsuccessful since Form I either was too soluble or oiled out at water activities of 0.8 or below.

[6] = under vacuum at 45° C., 2 and 7 days

## CS(=O)(=O)O.O=C1c2cc(-c3ccc(OC(F)(F)F)cc3)ccc2OCCN1Cc1ncccn1 [Compound I Form IV, 4-(pyrimidin-2-ylmethyl)-7-(4-(trifluoromethoxy)phenyl)-3,4-dihydrobenzo[f][1,4]oxazepin-5(2H)-one methanesulfonic acid]
[1]; 17 solvents, 24 h, similar after 2 weeks, water afforded Form III (wet), Form III + Form II after air drying
  Form stability in slurry by XRPD (in words): no form change in all solvents except water
[1]; aqueous with cosolvent or surfactant or cyclodextrin, EtOH/water 0.8 water activity (480 μL H2O and 520 μL EtOH), all solids dissolved
  solubility at 24 h: > 150000 µg/mL
[1]; organic solvent or mixture, 2-Me-THF
  solubility at 24 h: 2300 µg/mL
[1]; organic solvent or mixture, Acetone
  solubility at 24 h: 4160 µg/mL
[1]; organic solvent or mixture, DCM
  solubility at 24 h: 5480 µg/mL
[1]; organic solvent or mixture, EtOAc
  solubility at 24 h: 1260 µg/mL
[1]; organic solvent or mixture, EtOH
  solubility at 24 h: 12200 µg/mL
[1]; organic solvent or mixture, Heptane
  solubility at 24 h: 100 µg/mL
[1]; organic solvent or mixture, IPA
  solubility at 24 h: 5420 µg/mL
[1]; organic solvent or mixture, IPAc
  solubility at 24 h: 780 µg/mL
[1]; organic solvent or mixture, MEK
  solubility at 24 h: 3140 µg/mL
[1]; organic solvent or mixture, MIBK
  solubility at 24 h: 1420 µg/mL
[1]; organic solvent or mixture, MTBE
  solubility at 24 h: 340 µg/mL
[1]; organic solvent or mixture, MeCN
  solubility at 24 h: 4820 µg/mL
[1]; organic solvent or mixture, MeOH
  solubility at 24 h: 40400 µg/mL
[1]; organic solvent or mixture, THF
  solubility at 24 h: 7940 µg/mL
[1]; organic solvent or mixture, Toluene
  solubility at 24 h: 360 µg/mL
[1]; water, Water, solid converted to Form III (wet)
  solubility at 24 h: 4340 µg/mL
[2]; 0 days
  HPLC (% AN): 100 % AN
  XRPD: Form IV
[2]; 0 days, theoretical strength 81.21%
  HPLC (% ES): 80.2 % ES
[2]; 2 days
  HPLC (% AN): 100 % AN
  XRPD: Form IV
[2]; 2 days, theoretical strength 81.21%
  HPLC (% ES): 85.4 % ES
[2]; 7 days
  HPLC (% AN): 100 % AN
  XRPD: Form IV
[2]; 7 days, theoretical strength 81.21%
  HPLC (% ES): 82.1 % ES
[2]; [6]
  Form stability by XRPD during drying (in words): did not show any form change
  HPLC purity during drying: 100 % (AUC)
[2]; under vacuum at 45° C., 2 and 7 days, theoretical strength 81.21%
  HPLC strength during drying: 80 to 85%
[3]
  Hygroscopicity by DVS (in words): slightly hygroscopic
  Moisture uptake at 90% RH (DVS): 1.0 wt %
[3]; listed as Form IV
  Moisture uptake at 90% RH (DVS): 1.01 wt % at
  Hygroscopicity by DVS (in words): Slightly

## O=C1c2cc(-c3ccc(OC(F)(F)F)cc3)ccc2OCCN1Cc1ncccn1.O=S(=O)(O)c1ccccc1 [Compound I Form V, 4-(pyrimidin-2-ylmethyl)-7-(4-(trifluoromethoxy)phenyl)-3,4-dihydrobenzo[f][1,4]oxazepin-5(2H)-one benzene sulfonic acid]
[4]; IPA, IPAc and MTBE, 3 days, no further change after two weeks
  Form stability in slurry by XRPD (in words): all solids converted to anhydrous Compound I Form VI
[4]; IPA
  solubility at 3 days: 16100 µg/mL
[4]; IPAc
  solubility at 3 days: 2200 µg/mL
[4]; MTBE
  solubility at 3 days: 460 µg/mL

## CCS(=O)(=O)O.O=C1c2cc(-c3ccc(OC(F)(F)F)cc3)ccc2OCCN1Cc1ncccn1 [Compound I Form XVI, 4-(pyrimidin-2-ylmethyl)-7-(4-(trifluoromethoxy)phenyl)-3,4-dihydrobenzo[f][1,4]oxazepin-5(2H)-one esylate]
[3]
  Relative humidity of deliquescence (DVS): around 90 % RH

## O=C1c2cc(-c3ccc(OC(F)(F)F)cc3)ccc2OCCN1Cc1ncccn1 [Compound I Form III, 4-(pyrimidin-2-ylmethyl)-7-(4-(trifluoromethoxy)phenyl)-3,4-dihydrobenzo[f][1,4]oxazepin-5(2H)-one]
[5]; 10% EtOH/water, water activity >0.9
  Form III Solubility mg/g (1 day): 0.06 mg/g
[5]; 10% IPA/water, water activity >0.9
  Form III Solubility mg/g (1 day): 0.06 mg/g
[5]; 20% EtOH/water, water activity 0.8-0.9
  Form III Solubility mg/g (1 day): 0.10 mg/g
[5]; 20% IPA/water, water activity >0.9
  Form III Solubility mg/g (1 day): 0.19 mg/g
[5]; 25% IPA/water, water activity >0.9
  Form III Solubility mg/g (1 day): 0.78 mg/g
[5]; 30% EtOH/water, water activity 0.8-0.9
  Form III Solubility mg/g (1 day): 0.49 mg/g
[5]; 30% IPA/water, water activity >0.9
  Form III Solubility mg/g (1 day): 3.2 mg/g
[5]; 35% EtOH/water, water activity 0.8-0.9
  Form III Solubility mg/g (1 day): 1.8 mg/g
[5]; water activities above 0.8, EtOH/water or IPA/water
  Relative polymorph stability (competition slurry Form I/Form III): the most stable polymorph of Compound I

## O=C1c2cc(-c3ccc(OC(F)(F)F)cc3)ccc2OCCN1Cc1ncccn1.O=S(=O)(O)c1ccccc1 [Compound I Form VI, 4-(pyrimidin-2-ylmethyl)-7-(4-(trifluoromethoxy)phenyl)-3,4-dihydrobenzo[f][1,4]oxazepin-5(2H)-one benzene sulfonic acid]
[3]
  Hygroscopicity by DVS (in words): non-hygroscopic
  Moisture uptake at 90% RH (DVS): about 0.1%
[3]; listed as Form VI
  Moisture uptake at 90% RH (DVS): 0.11 wt % at
  Hygroscopicity by DVS (in words): Non-

## 4-(pyrimidin-2-ylmethyl)-7-(4-(trifluoromethoxy)phenyl)-3,4-dihydrobenzo[f][1,4]oxazepin-5(2H)-one edisylate [Compound I Form XVII]
[3]
  Hygroscopicity by DVS (in words): slightly hygroscopic
  Moisture uptake at 90% RH (DVS): about 1%

## O=C(O)C(=O)O.O=C1c2cc(-c3ccc(OC(F)(F)F)cc3)ccc2OCCN1Cc1ncccn1 [Compound I Form XVIII, 4-(pyrimidin-2-ylmethyl)-7-(4-(trifluoromethoxy)phenyl)-3,4-dihydrobenzo[f][1,4]oxazepin-5(2H)-one oxalate]
[3]
  Hygroscopicity by DVS (in words): non-hygroscopic
  Moisture uptake at 90% RH (DVS): about 0.075%
